Experimental data as given in BindingDB's records for doi:10.1021/jm00079a012 (Smithkline Beecham Pharmaceuticals, 1992).
pKi: −log10 of the molar value.

Assays:
[1] = target: Delta(24)-sterol reductase DHCR24 (Rattus norvegicus); test: Compound was tested for the inhibition of delta24-sterol reductase
[2] = target: Delta(24)-sterol reductase DHCR24 (Rattus norvegicus); test: as above; remark: listed apart in the source

Compound	pKi [1]	pKi [2]
CC(C)[S+](C)CC[C@@H](C)C1CCC2C3CC=C4C[C@@H](O)CC[C@]4(C)C3CC[C@@]21C (stereo partly drawn)	8.40	–
C[C@H](CCC(=N)N)C1CC[C@@]2(C)C3=C(CC[C@]12C)[C@@]1(C)CC[C@H](O)C(C)(C)C1CC3 (stereo partly drawn)	8.15	–
C[C@H](CCC(N)=[N+](C)C)C1CC[C@@]2(C)C3=C(CC[C@]12C)[C@@]1(C)CC[C@H](O)C(C)(C)C1CC3 (stereo partly drawn)	–	7.92
